Reference: ChEMBL document CHEMBL1201862, “PubChem BioAssay data set” (2004)
Activity calls are given as the source filed them.

Columns and labels:
Estrogen receptor = biological target: T1, Estrogen receptor (Homo sapiens, UniProt P03372); assay: ERα coactivator recruitment enhancers – biochemical, TR-FRET, ERα LBD, dose response (AID 737)
T1 sequence (P03372 whole entry): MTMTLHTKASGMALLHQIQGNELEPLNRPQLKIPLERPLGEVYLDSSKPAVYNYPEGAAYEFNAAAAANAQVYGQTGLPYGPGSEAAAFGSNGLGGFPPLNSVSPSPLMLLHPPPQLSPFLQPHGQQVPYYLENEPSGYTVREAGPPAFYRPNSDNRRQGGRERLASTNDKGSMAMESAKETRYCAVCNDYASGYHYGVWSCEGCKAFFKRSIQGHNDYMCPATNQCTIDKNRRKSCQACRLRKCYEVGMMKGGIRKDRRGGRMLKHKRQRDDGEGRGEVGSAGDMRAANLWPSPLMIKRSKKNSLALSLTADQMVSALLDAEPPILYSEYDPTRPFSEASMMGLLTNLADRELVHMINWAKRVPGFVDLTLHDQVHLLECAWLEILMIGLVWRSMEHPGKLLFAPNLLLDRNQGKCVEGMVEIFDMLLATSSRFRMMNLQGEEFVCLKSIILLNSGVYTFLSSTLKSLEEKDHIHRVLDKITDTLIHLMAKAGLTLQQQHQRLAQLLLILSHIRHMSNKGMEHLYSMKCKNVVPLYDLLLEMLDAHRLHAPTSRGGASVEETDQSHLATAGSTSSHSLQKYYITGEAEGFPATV

Bcl-2-like protein 10 = biological target: T2, Bcl-2-like protein 10 (Homo sapiens, UniProt Q9HD36); assay: Bcl-B/TR3 peptide binding disruption – biochemical, fluorescence polarization, FITC-TR3 peptide, selectivity assay for Bfl-1 inhibitor project, primary screen (AID 748);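 note: fluorescence polarization from a fluorescein-labelled TR3 peptide binding purified Bcl-B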
T2 sequence (Q9HD36 whole entry): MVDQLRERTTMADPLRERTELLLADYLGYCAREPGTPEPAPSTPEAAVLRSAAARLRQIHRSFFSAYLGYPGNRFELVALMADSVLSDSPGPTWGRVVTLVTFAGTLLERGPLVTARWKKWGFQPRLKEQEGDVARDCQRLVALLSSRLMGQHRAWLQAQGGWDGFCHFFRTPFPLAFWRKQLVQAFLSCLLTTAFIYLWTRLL

[1] = biological target: Sphingosine 1-phosphate receptor 4 (Homo sapiens, UniProt O95977); assay: Fluorescence dose response cell-based high throughput screening assay for antagonists of the Sphingosine 1-Phosphate Receptor 4 (S1P4). [Related pubchem assays: 1524 (Confirmation in triplicates.), 1510 (Primary screen.)]; format: functional
[2] = biological target: Sphingosine 1-phosphate receptor 1 (Homo sapiens, UniProt P21453); format: functional;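 note: Tango beta-arrestin reporter U2OS cells stimulated with S1P near its EC80; inhibitor potency meaning antagonism of receptor activation by the natural agonist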
[3] = fluconazole-exposed Candida albicans growth modulators – fluorescence, retest, confirmation (AID 2467); format: functional, cell-based
[4] = NIH-3T3 fibroblast cytotoxicity, dose response, cytotoxicity control, cell-based, fluorescence, Alamar Blue, secondary assay (AID 2327); format: functional;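 note: NIH-3T3 mouse fibroblasts cultured with fluconazole at 8 µg/mL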
[5] = Trypanosoma cruzi growth suppression in host cells – NIH3T3 host cells, beta-gal luminescence, confirmation (AID 2044); format: functional, cell-based;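 note: intracellular parasites grown in NIH/3T3 mouse fibroblasts as host cells; luminescent beta-galactosidase reporter signal from transgenic T. cruzi replicating inside host cells; inhibitors lower the luminescence signal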
[6] = HPDE-C7 pancreatic duct cell viability loss – fluorescence, HTS (AID 430); format: functional, cell-based; conditions: Homo sapiens
[7] = viability loss of HPDE-C7K cells – cell-based, fluorescence, HTS, primary screen (AID 431); format: functional; conditions: Homo sapiens
[8] = NIH3T3 cell viability loss – ATP luminescence, mouse fibroblasts, counter-screen, dose response (AID 2010); format: functional, cell-based;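 note: cells exposed to compound for about 90 hours before reading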
[9] = biological target: 5-hydroxytryptamine receptor 1E (Homo sapiens, UniProt P28566); assay: Counterscreen assay for S1P3 antagonists: Dose response cell-based high throughput screening assay to identify antagonists of the 5-Hydroxytryptamine Receptor Subtype 1E (5HT1E). [Related pubchem assays: 1429, 485 ]; format: functional
[10] = biological target: Sphingosine 1-phosphate receptor 3 (Homo sapiens, UniProt Q99500); assay: Dose response cell-based high throughput screening assay for antagonists of the Sphingosine 1-Phosphate Receptor 3 (S1P3). [Related pubchem assays: 1429, 485 ]; format: functional
[11] = antiviral protection against BTV-induced cell death – arbovirus, BSR cells, confirmation (AID 1250); format: functional;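 note: protection from viral cytopathic effect measured as cell viability by ATP luminescence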
[12] = biological target: Sphingosine 1-phosphate receptor 2 (Homo sapiens, UniProt O95136); assay: Dose Response Cell Based Assay for Agonists of the S1P2 Receptor of Purchased Analogues. [Related pubchem assays: 729, 843, 854, 736 ]; format: functional
[13] = biological target: T3, Sentrin-specific protease 7 (Homo sapiens, UniProt Q9BQF6); format: functional;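 note: Luminescence-based dose-response confirmation of ultra-high-throughput screening hits, measuring inhibition of SENP7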
T3 sequence (Q9BQF6 whole entry): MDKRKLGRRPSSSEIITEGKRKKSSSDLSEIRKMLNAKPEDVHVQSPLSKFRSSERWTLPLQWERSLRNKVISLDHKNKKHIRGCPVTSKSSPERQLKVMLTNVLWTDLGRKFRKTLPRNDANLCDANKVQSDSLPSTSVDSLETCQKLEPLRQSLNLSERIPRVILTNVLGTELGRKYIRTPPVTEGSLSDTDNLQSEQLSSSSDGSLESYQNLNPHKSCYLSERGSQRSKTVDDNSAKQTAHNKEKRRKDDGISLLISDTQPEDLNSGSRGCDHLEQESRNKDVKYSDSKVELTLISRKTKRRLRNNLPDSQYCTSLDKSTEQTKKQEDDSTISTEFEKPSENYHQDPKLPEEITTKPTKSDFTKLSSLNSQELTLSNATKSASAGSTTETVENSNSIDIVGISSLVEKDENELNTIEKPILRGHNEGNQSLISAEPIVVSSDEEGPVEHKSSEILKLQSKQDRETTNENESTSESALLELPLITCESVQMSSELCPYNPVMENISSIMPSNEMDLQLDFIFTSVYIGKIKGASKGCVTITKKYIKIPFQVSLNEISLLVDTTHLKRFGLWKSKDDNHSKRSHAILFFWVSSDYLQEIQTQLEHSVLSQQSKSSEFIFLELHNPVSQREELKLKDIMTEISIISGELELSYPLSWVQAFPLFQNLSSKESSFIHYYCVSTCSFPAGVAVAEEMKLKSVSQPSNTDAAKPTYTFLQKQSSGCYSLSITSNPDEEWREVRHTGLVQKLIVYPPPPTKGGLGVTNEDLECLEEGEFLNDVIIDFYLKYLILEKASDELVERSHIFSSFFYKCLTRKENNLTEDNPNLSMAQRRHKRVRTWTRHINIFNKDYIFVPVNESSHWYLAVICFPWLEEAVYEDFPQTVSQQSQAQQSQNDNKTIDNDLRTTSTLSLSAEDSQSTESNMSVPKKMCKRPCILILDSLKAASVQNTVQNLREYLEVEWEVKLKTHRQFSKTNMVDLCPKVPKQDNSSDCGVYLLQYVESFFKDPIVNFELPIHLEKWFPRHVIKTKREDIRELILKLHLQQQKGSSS

Caspase-3 = biological target: T4, Caspase-3 (Homo sapiens, UniProt P42574); format: functional;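 note: Dose-response selectivity test against caspase-3 for candidate inhibitors of sentrin-specific proteases (SENPs)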
T4 sequence (P42574 whole entry): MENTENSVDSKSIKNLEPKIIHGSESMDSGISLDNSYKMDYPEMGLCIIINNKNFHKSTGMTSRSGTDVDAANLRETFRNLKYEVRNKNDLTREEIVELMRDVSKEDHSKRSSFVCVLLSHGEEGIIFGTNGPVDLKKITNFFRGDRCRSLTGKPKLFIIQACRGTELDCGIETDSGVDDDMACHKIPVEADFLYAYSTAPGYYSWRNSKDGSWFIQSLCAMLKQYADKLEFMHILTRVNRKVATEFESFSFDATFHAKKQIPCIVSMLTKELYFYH

[14] = biological target: T5, Sentrin-specific protease 6 (Homo sapiens, UniProt Q9GZR1); format: functional;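 note: Luminescence-based dose-response confirmatory assay of SENP6 inhibition, following up an ultra-high-throughput screen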
T5 sequence (Q9GZR1 whole entry): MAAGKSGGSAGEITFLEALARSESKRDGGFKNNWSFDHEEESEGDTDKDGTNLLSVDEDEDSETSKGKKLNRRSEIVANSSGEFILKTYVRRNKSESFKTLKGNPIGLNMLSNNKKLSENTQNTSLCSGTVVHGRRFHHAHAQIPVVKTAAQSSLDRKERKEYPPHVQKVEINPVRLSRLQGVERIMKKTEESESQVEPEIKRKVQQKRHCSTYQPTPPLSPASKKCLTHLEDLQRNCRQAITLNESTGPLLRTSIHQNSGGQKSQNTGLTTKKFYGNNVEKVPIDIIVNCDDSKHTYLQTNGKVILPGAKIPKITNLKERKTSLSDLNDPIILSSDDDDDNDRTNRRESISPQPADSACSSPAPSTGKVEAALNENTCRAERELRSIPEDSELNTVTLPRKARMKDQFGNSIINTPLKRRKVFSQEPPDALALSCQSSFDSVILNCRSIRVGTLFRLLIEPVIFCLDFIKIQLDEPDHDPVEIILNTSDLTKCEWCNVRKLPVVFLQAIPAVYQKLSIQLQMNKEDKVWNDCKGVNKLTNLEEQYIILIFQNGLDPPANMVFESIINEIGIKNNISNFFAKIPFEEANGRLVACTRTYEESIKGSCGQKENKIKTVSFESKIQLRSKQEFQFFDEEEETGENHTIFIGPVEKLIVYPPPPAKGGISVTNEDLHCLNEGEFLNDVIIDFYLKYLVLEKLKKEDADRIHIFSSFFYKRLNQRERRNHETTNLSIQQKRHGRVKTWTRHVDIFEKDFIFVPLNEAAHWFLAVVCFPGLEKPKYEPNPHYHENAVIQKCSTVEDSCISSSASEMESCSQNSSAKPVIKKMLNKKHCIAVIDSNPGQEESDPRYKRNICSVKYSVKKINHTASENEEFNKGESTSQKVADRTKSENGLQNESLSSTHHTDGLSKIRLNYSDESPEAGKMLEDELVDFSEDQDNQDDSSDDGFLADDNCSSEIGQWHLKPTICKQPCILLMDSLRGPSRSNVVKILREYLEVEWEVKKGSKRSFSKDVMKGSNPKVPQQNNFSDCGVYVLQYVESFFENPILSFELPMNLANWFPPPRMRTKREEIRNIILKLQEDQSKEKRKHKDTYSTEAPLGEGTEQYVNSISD

Vero = assay: viability of Vero cells under compound – cytotoxicity control for flavivirus capping enzyme inhibitors (AID 588742); format: functional; conditions: Chlorocebus sabaeus
Estrogen receptor beta [15] = biological target: T6, Estrogen receptor beta (Homo sapiens, UniProt Q92731);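 note: recombinant ER-beta bound to coactivator SRC1 peptide in presence of estradiol agonist; inhibitors block coactivator peptide binding and lower the FRET signal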
Estrogen receptor beta [16] = biological target: T6, Estrogen receptor beta; assay: blockers of SRC-3 recruitment to ERβ – biochemical, ELISA, streptavidin-HRP readout, orthogonal assay, confirmation (AID 1060)
[17] = biological target: T7, Sentrin-specific protease 8 (Homo sapiens, UniProt Q96LD8); format: functional;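 note: luminescence read-out of SENP8 inhibition, dose-response confirmation following an ultra-high-throughput screen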
T7 sequence (Q96LD8 whole entry): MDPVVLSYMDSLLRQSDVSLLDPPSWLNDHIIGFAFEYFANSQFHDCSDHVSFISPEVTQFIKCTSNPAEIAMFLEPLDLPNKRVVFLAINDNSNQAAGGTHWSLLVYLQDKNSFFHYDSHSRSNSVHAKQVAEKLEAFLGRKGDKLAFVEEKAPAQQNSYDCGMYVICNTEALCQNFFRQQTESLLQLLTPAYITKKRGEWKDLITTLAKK

[18] = viability loss in THP-1 monocytes – THP-1 cells, cytotoxicity control for Vif-APOBEC3G degradation inhibitor project, dose response (AID 1117359); format: functional; conditions: THP-1
[19] = biological target: Glutathione-S-transferase (Schistosoma japonicum, UniProt Q26513); assay: GST-antibody interaction or FRET quenching – biochemical, TR-FRET, artefact control for Vif-APOBEC3G degradation inhibitor project, dose response (AID 1117362); format: functional
Genome polyprotein = Genome polyprotein (dengue virus type 2, UniProt P29990); assay: flavivirus cap methylation enzyme inhibition – biochemical, confirmation dose response, primary screen (AID 588689); format: functional
[20] = biological target: Neuropeptide Y receptor type 2 (Homo sapiens, UniProt P49146); format: functional, cell-based;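 note: HEK293 cells expressing the receptor and a CNG channel; stimulus was NPY near EC95 followed by isoproterenol to raise cAMP; antagonist potency measured as restoring cAMP signal that NPY suppresses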
[21] = biological target: Neuropeptide Y receptor type 1 (Homo sapiens, UniProt P25929); format: functional;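 note: HEK293 cells with a CNG channel challenged with NPY then isoproterenol; potency as antagonist that reverses NPY suppression of cAMP signal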
Neuropeptide Y receptor type 1, sequence (P25929 whole entry): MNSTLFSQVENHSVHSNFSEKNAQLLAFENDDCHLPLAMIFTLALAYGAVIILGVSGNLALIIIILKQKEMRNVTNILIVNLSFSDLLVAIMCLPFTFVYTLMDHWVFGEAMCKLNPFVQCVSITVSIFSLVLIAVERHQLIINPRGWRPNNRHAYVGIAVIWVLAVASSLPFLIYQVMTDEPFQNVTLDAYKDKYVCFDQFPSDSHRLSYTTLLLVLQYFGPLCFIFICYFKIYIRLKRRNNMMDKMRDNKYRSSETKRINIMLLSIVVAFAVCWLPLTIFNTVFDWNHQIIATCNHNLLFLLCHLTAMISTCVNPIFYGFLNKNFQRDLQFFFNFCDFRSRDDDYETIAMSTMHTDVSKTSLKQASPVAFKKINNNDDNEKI

T6 sequence (Q92731 whole entry): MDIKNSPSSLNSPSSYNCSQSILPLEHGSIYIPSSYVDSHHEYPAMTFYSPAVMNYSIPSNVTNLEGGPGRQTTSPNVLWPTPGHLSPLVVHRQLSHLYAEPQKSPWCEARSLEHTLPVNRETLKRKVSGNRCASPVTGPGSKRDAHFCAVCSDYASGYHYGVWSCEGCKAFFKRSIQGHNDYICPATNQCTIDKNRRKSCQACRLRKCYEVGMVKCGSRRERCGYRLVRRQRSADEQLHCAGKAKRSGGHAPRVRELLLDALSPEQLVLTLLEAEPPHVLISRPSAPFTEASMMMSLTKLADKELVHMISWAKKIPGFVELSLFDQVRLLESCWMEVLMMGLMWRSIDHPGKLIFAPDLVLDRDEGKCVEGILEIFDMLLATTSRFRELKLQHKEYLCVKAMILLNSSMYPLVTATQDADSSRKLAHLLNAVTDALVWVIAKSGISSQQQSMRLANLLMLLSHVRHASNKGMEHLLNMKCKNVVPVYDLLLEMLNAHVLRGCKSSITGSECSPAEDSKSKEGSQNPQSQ
Neuropeptide Y receptor type 2, sequence (P49146 whole entry): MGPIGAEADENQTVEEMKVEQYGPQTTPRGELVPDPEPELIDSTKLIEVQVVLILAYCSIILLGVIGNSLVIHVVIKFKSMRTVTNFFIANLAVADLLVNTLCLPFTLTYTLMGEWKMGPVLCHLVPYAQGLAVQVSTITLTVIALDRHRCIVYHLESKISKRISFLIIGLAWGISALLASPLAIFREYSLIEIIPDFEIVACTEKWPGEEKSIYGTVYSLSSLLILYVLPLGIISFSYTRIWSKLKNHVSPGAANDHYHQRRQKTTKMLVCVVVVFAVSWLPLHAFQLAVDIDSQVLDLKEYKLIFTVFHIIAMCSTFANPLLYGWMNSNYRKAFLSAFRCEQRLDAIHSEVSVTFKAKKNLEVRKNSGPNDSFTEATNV
Sphingosine 1-phosphate receptor 3, sequence (Q99500 whole entry): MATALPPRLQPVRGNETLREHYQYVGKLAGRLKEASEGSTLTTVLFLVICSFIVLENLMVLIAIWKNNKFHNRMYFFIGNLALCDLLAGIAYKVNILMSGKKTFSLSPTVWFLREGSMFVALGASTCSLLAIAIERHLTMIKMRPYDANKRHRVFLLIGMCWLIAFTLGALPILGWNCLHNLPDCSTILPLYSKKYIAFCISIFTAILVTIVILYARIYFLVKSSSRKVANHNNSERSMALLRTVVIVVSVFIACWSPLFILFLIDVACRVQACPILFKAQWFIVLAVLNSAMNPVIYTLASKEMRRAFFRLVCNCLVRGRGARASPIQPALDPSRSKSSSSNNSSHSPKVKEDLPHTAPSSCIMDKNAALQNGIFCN
Sphingosine 1-phosphate receptor 1, sequence (P21453 whole entry): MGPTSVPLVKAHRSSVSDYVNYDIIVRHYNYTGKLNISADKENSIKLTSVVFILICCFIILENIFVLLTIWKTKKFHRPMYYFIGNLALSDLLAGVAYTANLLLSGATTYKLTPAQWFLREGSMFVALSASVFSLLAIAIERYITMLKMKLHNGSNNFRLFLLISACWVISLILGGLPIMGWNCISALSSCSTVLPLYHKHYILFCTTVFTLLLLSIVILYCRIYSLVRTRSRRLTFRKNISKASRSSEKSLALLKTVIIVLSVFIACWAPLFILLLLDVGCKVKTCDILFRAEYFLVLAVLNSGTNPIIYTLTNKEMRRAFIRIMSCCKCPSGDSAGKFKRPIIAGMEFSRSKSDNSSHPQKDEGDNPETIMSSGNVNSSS
5-hydroxytryptamine receptor 1E, sequence (P28566 whole entry): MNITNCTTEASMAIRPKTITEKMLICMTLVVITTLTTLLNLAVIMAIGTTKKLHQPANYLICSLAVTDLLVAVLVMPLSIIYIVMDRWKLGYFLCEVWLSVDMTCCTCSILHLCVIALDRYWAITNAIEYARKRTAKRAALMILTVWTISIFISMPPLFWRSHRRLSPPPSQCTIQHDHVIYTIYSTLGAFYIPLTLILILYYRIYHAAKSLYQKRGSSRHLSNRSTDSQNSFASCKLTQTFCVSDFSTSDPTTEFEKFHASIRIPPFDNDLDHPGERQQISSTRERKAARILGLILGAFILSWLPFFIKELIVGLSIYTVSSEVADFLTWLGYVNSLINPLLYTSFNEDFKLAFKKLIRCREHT
Sphingosine 1-phosphate receptor 4, sequence (O95977 whole entry): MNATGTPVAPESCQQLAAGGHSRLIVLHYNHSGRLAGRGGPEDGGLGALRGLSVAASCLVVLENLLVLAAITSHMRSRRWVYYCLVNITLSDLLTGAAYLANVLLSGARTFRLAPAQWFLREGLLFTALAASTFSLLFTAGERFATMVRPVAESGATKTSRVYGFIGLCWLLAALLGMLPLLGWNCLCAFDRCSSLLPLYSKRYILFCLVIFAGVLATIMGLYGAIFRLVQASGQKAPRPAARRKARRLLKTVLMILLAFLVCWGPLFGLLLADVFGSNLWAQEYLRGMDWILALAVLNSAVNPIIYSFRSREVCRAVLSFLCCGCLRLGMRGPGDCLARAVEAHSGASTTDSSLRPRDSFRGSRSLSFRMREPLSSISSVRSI
Genome polyprotein, sequence (P29990 2492-3391 limits assumed): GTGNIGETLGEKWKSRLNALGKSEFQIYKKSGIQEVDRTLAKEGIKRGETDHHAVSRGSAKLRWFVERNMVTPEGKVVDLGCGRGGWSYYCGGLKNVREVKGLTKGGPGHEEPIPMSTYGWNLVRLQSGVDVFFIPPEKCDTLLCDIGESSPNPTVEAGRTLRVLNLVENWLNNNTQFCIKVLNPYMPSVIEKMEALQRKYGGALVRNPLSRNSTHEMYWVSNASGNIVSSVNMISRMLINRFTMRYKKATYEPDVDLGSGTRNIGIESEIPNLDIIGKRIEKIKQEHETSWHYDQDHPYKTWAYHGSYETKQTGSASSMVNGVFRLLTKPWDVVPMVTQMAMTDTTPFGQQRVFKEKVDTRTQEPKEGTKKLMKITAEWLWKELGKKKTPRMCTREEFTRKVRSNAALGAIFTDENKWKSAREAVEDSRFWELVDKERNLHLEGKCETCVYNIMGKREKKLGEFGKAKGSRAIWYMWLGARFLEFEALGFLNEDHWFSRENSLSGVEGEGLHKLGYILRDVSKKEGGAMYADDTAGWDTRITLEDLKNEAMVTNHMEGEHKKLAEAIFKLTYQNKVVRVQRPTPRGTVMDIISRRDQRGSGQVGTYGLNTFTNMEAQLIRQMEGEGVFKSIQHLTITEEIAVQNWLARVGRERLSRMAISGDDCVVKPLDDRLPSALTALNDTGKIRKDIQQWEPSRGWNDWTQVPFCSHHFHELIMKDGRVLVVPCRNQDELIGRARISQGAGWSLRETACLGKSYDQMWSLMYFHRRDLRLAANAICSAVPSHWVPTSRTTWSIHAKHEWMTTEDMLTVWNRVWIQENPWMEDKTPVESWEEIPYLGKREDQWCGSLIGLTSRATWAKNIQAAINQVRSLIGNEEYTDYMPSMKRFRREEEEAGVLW
Glutathione-S-transferase, sequence (Q26513 whole entry): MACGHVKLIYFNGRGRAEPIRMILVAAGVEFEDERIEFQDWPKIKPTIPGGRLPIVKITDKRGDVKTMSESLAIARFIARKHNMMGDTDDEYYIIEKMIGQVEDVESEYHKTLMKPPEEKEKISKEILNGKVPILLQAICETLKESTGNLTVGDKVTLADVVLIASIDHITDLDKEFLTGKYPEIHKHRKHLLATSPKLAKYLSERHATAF
Sphingosine 1-phosphate receptor 2, sequence (O95136 whole entry): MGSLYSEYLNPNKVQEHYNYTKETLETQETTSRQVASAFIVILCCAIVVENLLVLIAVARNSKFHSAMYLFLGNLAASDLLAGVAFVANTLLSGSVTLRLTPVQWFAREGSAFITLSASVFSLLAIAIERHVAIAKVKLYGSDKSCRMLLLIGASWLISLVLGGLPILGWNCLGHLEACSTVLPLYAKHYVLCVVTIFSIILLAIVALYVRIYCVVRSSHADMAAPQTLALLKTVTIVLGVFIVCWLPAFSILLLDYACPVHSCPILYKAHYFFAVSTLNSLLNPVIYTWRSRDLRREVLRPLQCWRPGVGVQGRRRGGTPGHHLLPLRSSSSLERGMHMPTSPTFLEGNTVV

**Q.** Which results are given for `Cc1ccc(-c2nnc(S)n2/N=C/C=C/c2ccccc2[N+](=O)[O-])cc1`?
**A.** EC50 (Estrogen receptor): 6.52 µM (active); IC50 (Bcl-2-like protein 10): > 100 µM (inactive)

**Q.** Which IC50 [1] does the source give for `CS(=O)(=O)c1nc(-c2cccs2)cc(C(F)(F)F)n1` here?
**A.** 989 nM (active)

**Q.** And the IC50 [2]?
**A.** 22.9 µM (not active)

**Q.** And the EC50 [3]?
**A.** > 38 µM (not active)

**Q.** What about the EC50 [4] of the same molecule?
**A.** 4.62 µM (inconclusive)

**Q.** What about the EC50 [5] of the same molecule?
**A.** 2.57 µM (active)

**Q.** What about the EC50 [6] of the same molecule?
**A.** 2.66 µM (active)

**Q.** And the EC50 [7]?
**A.** 2.73 µM (active)

**Q.** What about the EC50 [8] of the same molecule?
**A.** 3.19 µM (active)

**Q.** Which IC50 [9] does the source give for `CCCn1nc2ccccc2c1P(=O)(N1CCOCC1)N1CCOCC1` here?
**A.** > 50 µM (not active)

**Q.** And the IC50 [10]?
**A.** > 50 µM (not active)

**Q.** Which IC50 [11] does the source give for `C=CCN(CC=C)C(=S)NC(=O)Cc1cccc2ccccc12` here?
**A.** 31.6 µM (active)

**Q.** For `Cc1noc(C)c1C(=O)OCC(=O)c1cc(C)n(Cc2ccccc2)c1C`, which EC50 [12] is on record?
**A.** > 30 µM (not active)

**Q.** What does the source list for `Cc1ccc2c(c1)c(=O)c1c3n2CCN(C(=O)CCl)C3CC1` (configuration not stated)?
**A.** IC50 [13]: 23.9 µM (active); IC50 (Caspase-3): 14 µM (active); IC50 [14]: 8.69 µM (active); CC50 (Vero): 13.1 µM (active); IC50 (Estrogen receptor beta [15]): 8.75 µM (active); IC50 (Estrogen receptor beta [16]): 348 nM (not active); IC50 [17]: 14.2 µM (active); CC50 [18]: 10.9 µM (active); IC50 [19]: > 100 µM (active); IC50 (Bcl-2-like protein 10): 11.4 µM (active); IC50 (Genome polyprotein): > 100 µM (active)

**Q.** Which IC50 [20] does the source give for `O=C(CN(Cc1ccc2c(c1)OCO2)C(=O)CSc1nc2ccccc2o1)NC1CCCCC1` here?
**A.** 13.7 µM (not active)

**Q.** What about the IC50 [21] of the same molecule?
**A.** 8.58 µM (active)
